Results as given in patent publication US20060134102A1, “Lymphotoxin beta receptor agents in combination with chemotherapeutic agents” (Biogen Idec MA Inc., priority 2002, published 2006).

Test system: KM-20L2 human colorectal adenocarcinoma
Assay: KM-20L2 xenograft model: growth of established KM-20L2 human colorectal tumors in athymic nude mice (tumor volume/weight, % T/C, Fa, Combination Index)
Format: in vivo

## Nc1ccn([C@@H]2O[C@H](CO)[C@@H](O)C2(F)F)c(=O)n1 [Gemcitabine, gemcitabine, reference compound]
Gem 5 mg/kg, Day 9
  Mean Fraction Affected (Fa): 0.097
  Mean Fraction Affected/Fraction Unaffected (Fa/Fu): 0.107
  Mean Tumor Volume: 101.0 cubic mm
  Mean Tumor Volume Decrease: 10.8 cubic mm
Gem 5 mg/kg, Day 13
  Mean Fraction Affected (Fa): 0.178
  Mean Fraction Affected/Fraction Unaffected (Fa/Fu): 0.217
  Mean Tumor Volume: 141.8 cubic mm
  Mean Tumor Volume Decrease: 30.8 cubic mm
Gem 5 mg/kg, Day 16
  Mean Fraction Affected (Fa): 0.230
  Mean Fraction Affected/Fraction Unaffected (Fa/Fu): 0.298
  Mean Tumor Volume: 204.1 cubic mm
  Mean Tumor Volume Decrease: 60.9 cubic mm
Gem 5 mg/kg, Day 20
  Mean Fraction Affected (Fa): 0.310
  Mean Fraction Affected/Fraction Unaffected (Fa/Fu): 0.449
  Mean Tumor Volume: 276.8 cubic mm
  Mean Tumor Volume Decrease: 124.2 cubic mm
Gem 5 mg/kg, Day 23
  Mean Fraction Affected (Fa): 0.295
  Mean Fraction Affected/Fraction Unaffected (Fa/Fu): 0.419
  Mean Tumor Volume: 371.6 cubic mm
  Mean Tumor Volume Decrease: 155.6 cubic mm
Gem 5 mg/kg, Day 27
  Mean Fraction Affected (Fa): 0.242
  Mean Fraction Affected/Fraction Unaffected (Fa/Fu): 0.320
  Mean Tumor Volume: 506.7 cubic mm
  Mean Tumor Volume Decrease: 161.9 cubic mm
Gem 5 mg/kg, Day 30
  Mean Fraction Affected (Fa): 0.245
  Mean Fraction Affected/Fraction Unaffected (Fa/Fu): 0.325
  Mean Tumor Volume: 616.2 cubic mm
  Mean Tumor Volume Decrease: 200.0 cubic mm
Gem 5 mg/kg, Day 34
  Mean Fraction Affected (Fa): 0.295
  Mean Fraction Affected/Fraction Unaffected (Fa/Fu): 0.419
  Mean Tumor Volume: 740.4 cubic mm
  Mean Tumor Volume Decrease: 309.9 cubic mm
Gem 5 mg/kg, Day 37
  Mean Fraction Affected (Fa): 0.274
  Mean Fraction Affected/Fraction Unaffected (Fa/Fu): 0.377
  Mean Tumor Volume: 877.5 cubic mm
  Mean Tumor Volume Decrease: 330.5 cubic mm
Gem 5 mg/kg, Day 41
  Mean Fraction Affected (Fa): 0.253
  Mean Fraction Affected/Fraction Unaffected (Fa/Fu): 0.339
  Mean Tumor Volume: 1075.3 cubic mm
  Mean Tumor Volume Decrease: 364.1 cubic mm
Gem 5 mg/kg, Day 43
  Mean Fraction Affected (Fa): 0.226
  Mean Fraction Affected/Fraction Unaffected (Fa/Fu): 0.291
  Mean Tumor Volume: 1244.3 cubic mm
  Mean Tumor Volume Decrease: 362.4 cubic mm
Gem 10 mg/kg, Day 9
  Mean Fraction Affected (Fa): 0.084
  Mean Fraction Affected/Fraction Unaffected (Fa/Fu): 0.092
  Mean Tumor Volume: 102.4 cubic mm
  Mean Tumor Volume Decrease: 9.4 cubic mm
Gem 10 mg/kg, Day 13
  Mean Fraction Affected (Fa): 0.184
  Mean Fraction Affected/Fraction Unaffected (Fa/Fu): 0.225
  Mean Tumor Volume: 140.9 cubic mm
  Mean Tumor Volume Decrease: 31.7 cubic mm
Gem 10 mg/kg, Day 16
  Mean Fraction Affected (Fa): 0.362
  Mean Fraction Affected/Fraction Unaffected (Fa/Fu): 0.568
  Mean Tumor Volume: 169.0 cubic mm
  Mean Tumor Volume Decrease: 96.0 cubic mm
Gem 10 mg/kg, Day 20
  Mean Fraction Affected (Fa): 0.422
  Mean Fraction Affected/Fraction Unaffected (Fa/Fu): 0.731
  Mean Tumor Volume: 231.7 cubic mm
  Mean Tumor Volume Decrease: 169.3 cubic mm
Gem 10 mg/kg, Day 23
  Mean Fraction Affected (Fa): 0.410
  Mean Fraction Affected/Fraction Unaffected (Fa/Fu): 0.694
  Mean Tumor Volume: 311.2 cubic mm
  Mean Tumor Volume Decrease: 216.0 cubic mm
Gem 10 mg/kg, Day 27
  Mean Fraction Affected (Fa): 0.376
  Mean Fraction Affected/Fraction Unaffected (Fa/Fu): 0.602
  Mean Tumor Volume: 417.4 cubic mm
  Mean Tumor Volume Decrease: 251.2 cubic mm
Gem 10 mg/kg, Day 30
  Mean Fraction Affected (Fa): 0.388
  Mean Fraction Affected/Fraction Unaffected (Fa/Fu): 0.634
  Mean Tumor Volume: 499.5 cubic mm
  Mean Tumor Volume Decrease: 316.7 cubic mm
Gem 10 mg/kg, Day 34
  Mean Fraction Affected (Fa): 0.388
  Mean Fraction Affected/Fraction Unaffected (Fa/Fu): 0.635
  Mean Tumor Volume: 642.3 cubic mm
  Mean Tumor Volume Decrease: 408.0 cubic mm
Gem 10 mg/kg, Day 37
  Mean Fraction Affected (Fa): 0.401
  Mean Fraction Affected/Fraction Unaffected (Fa/Fu): 0.669
  Mean Tumor Volume: 723.7 cubic mm
  Mean Tumor Volume Decrease: 484.3 cubic mm
Gem 10 mg/kg, Day 41
  Mean Fraction Affected (Fa): 0.399
  Mean Fraction Affected/Fraction Unaffected (Fa/Fu): 0.664
  Mean Tumor Volume: 865.2 cubic mm
  Mean Tumor Volume Decrease: 574.2 cubic mm
Gem 10 mg/kg, Day 43
  Mean Fraction Affected (Fa): 0.393
  Mean Fraction Affected/Fraction Unaffected (Fa/Fu): 0.647
  Mean Tumor Volume: 975.7 cubic mm
  Mean Tumor Volume Decrease: 631.0 cubic mm
Gem 20 mg/kg, Day 9
  Mean Fraction Affected (Fa): 0.053
  Mean Fraction Affected/Fraction Unaffected (Fa/Fu): 0.056
  Mean Tumor Volume: 105.9 cubic mm
  Mean Tumor Volume Decrease: 5.9 cubic mm
Gem 20 mg/kg, Day 13
  Mean Fraction Affected (Fa): 0.357
  Mean Fraction Affected/Fraction Unaffected (Fa/Fu): 0.555
  Mean Tumor Volume: 111.0 cubic mm
  Mean Tumor Volume Decrease: 61.6 cubic mm
Gem 20 mg/kg, Day 16
  Mean Fraction Affected (Fa): 0.623
  Mean Fraction Affected/Fraction Unaffected (Fa/Fu): 1.655
  Mean Tumor Volume: 99.8 cubic mm
  Mean Tumor Volume Decrease: 165.2 cubic mm
Gem 20 mg/kg, Day 20
  Mean Fraction Affected (Fa): 0.748
  Mean Fraction Affected/Fraction Unaffected (Fa/Fu): 2.966
  Mean Tumor Volume: 101.1 cubic mm
  Mean Tumor Volume Decrease: 299.9 cubic mm
Gem 20 mg/kg, Day 23
  Mean Fraction Affected (Fa): 0.721
  Mean Fraction Affected/Fraction Unaffected (Fa/Fu): 2.579
  Mean Tumor Volume: 147.3 cubic mm
  Mean Tumor Volume Decrease: 379.9 cubic mm
Gem 20 mg/kg, Day 27
  Mean Fraction Affected (Fa): 0.663
  Mean Fraction Affected/Fraction Unaffected (Fa/Fu): 1.970
  Mean Tumor Volume: 225.1 cubic mm
  Mean Tumor Volume Decrease: 443.5 cubic mm
Gem 20 mg/kg, Day 30
  Mean Fraction Affected (Fa): 0.605
  Mean Fraction Affected/Fraction Unaffected (Fa/Fu): 1.530
  Mean Tumor Volume: 322.6 cubic mm
  Mean Tumor Volume Decrease: 493.6 cubic mm
Gem 20 mg/kg, Day 34
  Mean Fraction Affected (Fa): 0.578
  Mean Fraction Affected/Fraction Unaffected (Fa/Fu): 1.371
  Mean Tumor Volume: 443.0 cubic mm
  Mean Tumor Volume Decrease: 607.3 cubic mm
Gem 20 mg/kg, Day 37
  Mean Fraction Affected (Fa): 0.568
  Mean Fraction Affected/Fraction Unaffected (Fa/Fu): 1.314
  Mean Tumor Volume: 522.1 cubic mm
  Mean Tumor Volume Decrease: 685.9 cubic mm
Gem 20 mg/kg, Day 41
  Mean Fraction Affected (Fa): 0.532
  Mean Fraction Affected/Fraction Unaffected (Fa/Fu): 1.135
  Mean Tumor Volume: 674.3 cubic mm
  Mean Tumor Volume Decrease: 765.1 cubic mm
Gem 20 mg/kg, Day 43
  Mean Fraction Affected (Fa): 0.531
  Mean Fraction Affected/Fraction Unaffected (Fa/Fu): 1.134
  Mean Tumor Volume: 753.0 cubic mm
  Mean Tumor Volume Decrease: 853.7 cubic mm
Given Separately, Day 16
  Median Effect Dose: 14.1 mg/kg
Given Separately, Day 20
  Median Effect Dose: 10.1 mg/kg
Given Separately, Day 23
  Median Effect Dose: 10.8 mg/kg
Given Separately, Day 27
  Median Effect Dose: 12.8 mg/kg
Given Separately, Day 30
  Median Effect Dose: 14.1 mg/kg
Given Separately, Day 34
  Median Effect Dose: 14.8 mg/kg
Given Separately, Day 37
  Median Effect Dose: 15.0 mg/kg
Given Separately, Day 41
  Median Effect Dose: 16.8 mg/kg
Given Separately, Day 43
  Median Effect Dose: 16.9 mg/kg
Dose of the labelled agent when huCBE11 and Gemcitabine Combined (4:5), Day 16
  Median Effect Dose: 4.5 mg/kg
Dose of the labelled agent when huCBE11 and Gemcitabine Combined (4:5), Day 20
  Median Effect Dose: 1.7 mg/kg
Dose of the labelled agent when huCBE11 and Gemcitabine Combined (4:5), Day 23
  Median Effect Dose: 0.7 mg/kg
Dose of the labelled agent when huCBE11 and Gemcitabine Combined (4:5), Day 27
  Median Effect Dose: 0.9 mg/kg
Dose of the labelled agent when huCBE11 and Gemcitabine Combined (4:5), Day 30
  Median Effect Dose: 0.8 mg/kg
Dose of the labelled agent when huCBE11 and Gemcitabine Combined (4:5), Day 34
  Median Effect Dose: 0.8 mg/kg
Dose of the labelled agent when huCBE11 and Gemcitabine Combined (4:5), Day 37
  Median Effect Dose: 0.5 mg/kg
Dose of the labelled agent when huCBE11 and Gemcitabine Combined (4:5), Day 41
  Median Effect Dose: 0.7 mg/kg
Dose of the labelled agent when huCBE11 and Gemcitabine Combined (4:5), Day 43
  Median Effect Dose: 0.6 mg/kg
gemcitabine
  Activity by NCI criteria (% T/C of 42 or less): active
Gemcitabine 20 mg/kg Days 13-55, 10 mg/kg Days 16-55, 5 mg/kg Days 13-43, separate study
  Inhibition of tumor growth vs vehicle control: Significant inhibition of tumor growth
Gemcitabine 20 mg/kg, Day 16 through Day 34
  % T/C: ≤ 42%
Gemcitabine 25 mg/kg, Day 17 through Day 31
  % T/C: ≤ 42%
Gemcitabine 140, 100, 50 and 25 mg/kg, Day 10 to Day 41
  Inhibition of tumor growth vs saline control: Significant inhibition of tumor growth
Gemcitabine 140, 100 and 50 mg/kg, from Days 14 or 17 for the duration of the study
  % T/C: ≤ 42%
